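Results reflect a 48-hour exposure of cells in 96-well plates to compound at five concentrations. TGI: total growth inhibition.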
Legend:
Test in all cases: inhibition of tumour cell growth, NCI panel, 48 h
[1] = system: NCI-H226 lung
[2] = system: SF-268 CNS
[3] = system: DU-145 prostate
[4] = system: ACHN renal
[5] = system: SW-620 colon
[6] = system: EKVX NSCLC
[7] = system: SF-539 CNS
[8] = system: BT-549 breast
[9] = system: MDA-N
[10] = system: HT29 colon
[11] = system: UACC-62 melanoma
[12] = system: CAKI-1 renal
[13] = system: SK-OV-3 ovarian
[14] = system: HCT-116 colon
[15] = system: K-562 leukemia
[16] = system: MCF7 breast
[17] = system: SK-MEL-2 melanoma

Row | SMILES | TGI [1] [µM] | TGI [2] [µM] | TGI [3] [µM] | TGI [4] [µM] | TGI [5] [µM] | TGI [6] [µM] | TGI [7] [µM] | TGI [8] [µM] | TGI [9] [µM] | TGI [10] [µM] | TGI [11] [µM] | TGI [12] [µM] | TGI [13] [µM] | TGI [14] [µM] | TGI [15] [µM] | TGI [16] [µM] | TGI [17] [µM]
1 | O=C(O)c1ccc(Nc2nc3ccccc3nc2-c2cccs2)cc1 | > 100 | > 100 | > 100 | > 100 | > 100 | > 100 | > 100 | > 100 | > 100 | > 100 | > 100 | > 100 | > 100 | > 100 | > 100 |  | 
2 | CCOC(=O)[C@@H]1ON2O[C@H](OC3CCCC3(c3ccccc3)c3ccccc3)C[C@H]3OC(=O)[C@@H]1C32 (stereo not given in full) | > 100 | > 100 | > 100 | > 100 | > 100 | > 100 | > 100 |  | > 100 | > 100 | > 100 | 46 | > 100 | > 100 | > 100 | 91.4 | 
3 | Fc1ccccc1-c1nn2c(C34CC5CC(CC(C5)C3)C4)nnc2s1 | > 100 | > 100 | > 100 | > 100 | > 100 | > 100 | > 100 |  | > 100 | > 100 | > 100 | > 100 | > 100 | > 100 | > 100 |  | > 100
4 | CC1=C(C(=O)NCCc2ccccc2)CC(C(=O)NCCc2ccccc2)=C(C)N1 | > 100 | > 100 | > 100 | > 100 | > 100 | > 100 | > 100 | > 100 |  | > 100 | > 100 | > 100 | > 100 | > 100 | > 100 | > 100 | > 100
5 | Cc1ccc(SCC(CF)OCn2cc(F)c(=O)[nH]c2=O)cc1 (stereo not given) |  | > 100 | > 100 | > 100 | > 100 | > 100 | > 100 |  | > 100 | > 100 |  | > 100 | > 100 | > 100 | > 100 | > 100 | > 100
6 | COc1cc(NP(=O)(Oc2ccccc2)Oc2ccccc2)ccc1Nc1c2ccccc2nc2c1[nH]c1ccccc12 | 20.2 | > 100 | 1.56 | 11.9 | 12.9 | 44.9 |  |  | 15.4 | 2.96 | 8.58 | 17.3 | 20.9 | 63.8 | 6.71 | 25.7 | 22.6
7 | CSC1=N/C(=C\c2ccco2)C(=O)N1CN1CCCCC1 | > 100 | > 100 | > 100 | > 100 | > 100 | > 100 |  |  | > 100 | > 100 | > 100 |  | > 100 | > 100 | > 100 | > 100 | > 100
8 | COc1cc(C=Nc2ccc(C(C)C)cc2)cc(OC)c1OC | > 100 | > 100 |  | > 100 | > 54.6 | > 100 | > 100 |  |  | > 100 | > 100 | > 100 | > 100 | > 100 | > 86.7 |  | > 100
9 | [N-]=[NH+]CC(=O)OC(COCc1ccccc1)COCc1ccccc1 | > 100 | > 100 | > 100 | > 100 | > 100 | > 100 |  | > 100 |  | > 100 | > 100 | 86.6 | > 100 | > 100 | > 100 | > 100 | > 100
10 | O=C(C[n+]1ccccc1)N=N/C(C(=O)Nc1c(Cl)c(O)c2ccccc2c1O)=C1/C(=O)Oc2cc(O)ccc2C1=O | 25.8 | > 100 | 12.4 | 19.2 | 20.6 | 29.3 | 16 | 18.3 |  | 15.3 | 4.14 | 18.1 | 27.9 | 12.1 | > 100 | 15.5 | 8.1
11 | C#C[C@]1(O)CCC2C3CCc4cc(Oc5nc(F)nc(-c6c7cc8ccccc8cc7c7n6CCS7)n5)ccc4C3CCC21C (stereo not given in full) | > 100 | > 100 |  | > 100 | > 100 | > 100 | > 100 |  |  | 74.3 | 55.3 |  | > 100 | > 100 | > 100 |  | 89.7
12 | COc1ccc(NC(C)=O)cc1C1CCC(=O)N1 (stereo not given) | > 100 | > 100 | > 100 | > 100 | > 100 | > 100 | > 100 |  |  | > 100 | > 100 | > 100 | > 100 | > 100 | > 100 | > 100 | > 100
13 | COc1cc(C2C3=C(COC3=O)Oc3cc4c(cc32)OCO4)ccc1OC(C)=O (stereo not given) | > 100 | > 59.5 | > 100 | > 100 | > 100 | > 100 | 0.749 | 12.6 |  |  | > 100 | 0.904 | 0.909 | > 100 | > 38.7 | > 100 | > 100
14 | OC(C/C(=N\N1CCCCC1)c1cccs1)(C(F)(F)F)C(F)(F)F | > 10 | > 10 | > 10 | > 10 | > 10 | > 10 | > 10 |  | > 10 | > 10 | > 10 | > 10 | > 10 | > 10 | > 10 | > 10 | > 10
15 | CCCN1CN(C(C(=O)N[C@@H]2C(=O)N3C(C(=O)O)=C(C)CSC23)c2ccc(O)cc2)CSC1=S (stereo not given in full) |  | > 100 |  | > 100 | 30.8 | > 100 | > 100 |  |  | > 100 | > 100 | > 100 | > 100 | > 100 | > 100 |  | > 100
16 | O=C(c1cccs1)N(C(=S)N1CCN(c2ccccn2)CC1)C1CCCCC1 | 73.8 | > 100 |  | > 100 | > 100 |  | > 100 |  |  | > 100 | > 100 | > 100 | > 100 | > 100 | > 100 |  | > 100

— PubChem BioAssay (NCI)
